Source: patent US10501498B2 (BGI SHENZHEN, priority 2014, dated 2019)

Tested on: HVA calcium channel
Assay type: cell-based, rat

`COC(=O)C1=C(C)NC(C)=C(C(=O)OC)C1c1ccccc1[N+](=O)[O-]` [Nifedipine, reference compound] showed a current after loading of −734.31 pA and an inhibition rate (10 µM) of 50.09%.
